Assay results from publication PMC10420662, “Novel 7-Deazapurine Incorporating Isatin Hybrid Compounds as Protein Kinase Inhibitors: Design, Synthesis, In Silico Studies, and Antiproliferative Evaluation” (Molecules, 2023).
Blank lines part the entries; values can stand above or below the molecule they belong to.

Experiments:
HepG2 = assay: In vitro cytotoxicity MTT assay; format: cell-based; conditions: Homo sapiens, 24 h treatment, mean ± SD of three experiments
Protocol: (§1) Briefly, the cytotoxicity of the synthesized derivatives and the reference compounds was assessed via the MTT assay on four cancer cell lines. The cells were cultured in an RPMI11640 medium with 10% fetal bovine serum (FBS) and an antibiotic cocktail of […] streptomycin and 100 units/mL penicillin. Cancer cell lines were seeded independently in 96-well plates at a concentration of 1.0 × 10^4 cells/well at 37 °C, 5% CO2, and 100% relative humidity for 48 h. Afterwards, the incubated cells were treated with five concentrations of the synthesized derivatives for 24 h. Then, 20 µL MTT (5 mg/mL) was added and left for 4 h before adding 100 µL dimethyl sulfoxide (DMSO) to each well to solubilize the formed formazan.

HeLa = assay: In vitro cytotoxicity MTT assay; format: cell-based; conditions: Homo sapiens, 24 h treatment, mean ± SD of three experiments
Protocol: as §1

MDA-MB-231 = assay: In vitro cytotoxicity MTT assay; format: cell-based; conditions: Homo sapiens, 24 h treatment, mean ± SD of three experiments
Protocol: as §1

MCF-7 = assay: In vitro cytotoxicity MTT assay; format: cell-based; conditions: Homo sapiens, MCF7, 24 h treatment, mean ± SD of three experiments
Protocol: as §1

[1] = tested on: HepG2, MCF-7, MDA-MB-231, and HeLa cell lines; assay: In vitro cytotoxicity MTT assay, all tested cell lines; format: cell-based, human
Protocol: as §1

EGFR = EGFR (Homo sapiens, UniProt P00533); assay: Kinase inhibition assay (ELISA kit)
EGFR, sequence (P00533 25-1210): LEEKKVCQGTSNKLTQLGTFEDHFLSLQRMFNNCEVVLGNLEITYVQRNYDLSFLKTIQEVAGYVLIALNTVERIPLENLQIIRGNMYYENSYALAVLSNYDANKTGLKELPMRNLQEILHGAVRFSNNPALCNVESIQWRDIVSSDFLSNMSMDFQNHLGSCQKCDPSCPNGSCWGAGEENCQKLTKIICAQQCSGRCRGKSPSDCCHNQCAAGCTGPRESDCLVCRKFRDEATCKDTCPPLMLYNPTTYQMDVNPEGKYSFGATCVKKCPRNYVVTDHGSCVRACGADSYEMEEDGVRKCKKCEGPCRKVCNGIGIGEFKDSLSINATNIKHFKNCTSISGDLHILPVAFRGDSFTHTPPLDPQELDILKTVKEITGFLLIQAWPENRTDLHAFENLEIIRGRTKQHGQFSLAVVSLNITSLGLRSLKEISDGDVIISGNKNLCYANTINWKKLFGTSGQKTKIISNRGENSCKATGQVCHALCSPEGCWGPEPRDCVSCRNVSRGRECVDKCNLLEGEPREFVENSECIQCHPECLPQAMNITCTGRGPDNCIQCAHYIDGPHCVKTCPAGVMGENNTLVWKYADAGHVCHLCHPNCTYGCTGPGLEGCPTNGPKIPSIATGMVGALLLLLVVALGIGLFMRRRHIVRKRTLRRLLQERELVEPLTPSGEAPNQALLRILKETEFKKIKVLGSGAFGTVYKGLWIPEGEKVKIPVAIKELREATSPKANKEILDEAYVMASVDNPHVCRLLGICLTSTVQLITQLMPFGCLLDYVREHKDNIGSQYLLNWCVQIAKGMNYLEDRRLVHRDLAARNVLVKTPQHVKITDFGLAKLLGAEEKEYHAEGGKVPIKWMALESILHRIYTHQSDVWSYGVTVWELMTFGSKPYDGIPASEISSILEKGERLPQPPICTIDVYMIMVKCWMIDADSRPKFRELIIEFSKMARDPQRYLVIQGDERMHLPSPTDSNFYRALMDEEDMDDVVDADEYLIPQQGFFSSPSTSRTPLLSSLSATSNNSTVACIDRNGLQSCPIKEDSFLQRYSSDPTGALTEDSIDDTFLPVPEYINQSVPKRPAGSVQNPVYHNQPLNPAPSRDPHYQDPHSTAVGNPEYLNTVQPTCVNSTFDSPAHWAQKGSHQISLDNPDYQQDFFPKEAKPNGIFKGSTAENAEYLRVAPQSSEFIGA
Protocol: (§4) In vitro kinase inhibition assays were assessed against CDK2, EGFR, HER2, and VEGFR2, as described in [17, 27, 28]. […] Afterwards, the wells were washed. Then, 100 µL of the prepared biotin antibody was placed into each well and left for 1 h at room temperature. The wells were washed again before adding 100 µL of streptavidin solution and left for 45 min at room temperature. Then, 100 µL of TMB substrate reagent was added after a third washing step, and the plates were left for 30 min at room temperature. Finally, 50 µL of the stop solution was added to each well and the color intensity was measured at 450 nm.

BAX = BAX level assay (ELISA) in HepG2; format: cell-based, human; conditions: HepG2 cells, 24 h, vs untreated control
Protocol: (§2) The effect of compound 5 was also evaluated on caspase 3, caspase 9, BAX, and Bcl-2 protein levels in HepG2 (Table 6). […] Additionally, the level of Bcl-2 was reduced in the treated cells (0.18-fold) compared to untreated control cells.
(§3) Compound 5 effect on Caspase 3, caspase 9, BAX, and Bcl-2 levels was analyzed by following the method described in [17]. In 96-well plates, HepG2 cells were cultured and incubated for 24 h. The cells were then treated with compound 5 or 0.1% DMSO (v/v) for 24 h. Afterwards, caspase 3 and 9, BAX, and Bcl-2 levels were determined using ELISA assay kits KHO1091 (InvitrogenTM, Grand Island, NY, USA), EIA-4860 (DRU International Inc., Mountainside, NJ, USA), EIA-4487 (DRU International Inc., Mountainside, NJ, USA), and 99-0042 (InvitrogenTM, Grand Island, NY, USA), respectively, according to the manufacturers’ procedures.

HER2 = HER2 (Homo sapiens, UniProt P04626); assay: Kinase inhibition assay (ELISA kit)
HER2, sequence (P04626 23-1255): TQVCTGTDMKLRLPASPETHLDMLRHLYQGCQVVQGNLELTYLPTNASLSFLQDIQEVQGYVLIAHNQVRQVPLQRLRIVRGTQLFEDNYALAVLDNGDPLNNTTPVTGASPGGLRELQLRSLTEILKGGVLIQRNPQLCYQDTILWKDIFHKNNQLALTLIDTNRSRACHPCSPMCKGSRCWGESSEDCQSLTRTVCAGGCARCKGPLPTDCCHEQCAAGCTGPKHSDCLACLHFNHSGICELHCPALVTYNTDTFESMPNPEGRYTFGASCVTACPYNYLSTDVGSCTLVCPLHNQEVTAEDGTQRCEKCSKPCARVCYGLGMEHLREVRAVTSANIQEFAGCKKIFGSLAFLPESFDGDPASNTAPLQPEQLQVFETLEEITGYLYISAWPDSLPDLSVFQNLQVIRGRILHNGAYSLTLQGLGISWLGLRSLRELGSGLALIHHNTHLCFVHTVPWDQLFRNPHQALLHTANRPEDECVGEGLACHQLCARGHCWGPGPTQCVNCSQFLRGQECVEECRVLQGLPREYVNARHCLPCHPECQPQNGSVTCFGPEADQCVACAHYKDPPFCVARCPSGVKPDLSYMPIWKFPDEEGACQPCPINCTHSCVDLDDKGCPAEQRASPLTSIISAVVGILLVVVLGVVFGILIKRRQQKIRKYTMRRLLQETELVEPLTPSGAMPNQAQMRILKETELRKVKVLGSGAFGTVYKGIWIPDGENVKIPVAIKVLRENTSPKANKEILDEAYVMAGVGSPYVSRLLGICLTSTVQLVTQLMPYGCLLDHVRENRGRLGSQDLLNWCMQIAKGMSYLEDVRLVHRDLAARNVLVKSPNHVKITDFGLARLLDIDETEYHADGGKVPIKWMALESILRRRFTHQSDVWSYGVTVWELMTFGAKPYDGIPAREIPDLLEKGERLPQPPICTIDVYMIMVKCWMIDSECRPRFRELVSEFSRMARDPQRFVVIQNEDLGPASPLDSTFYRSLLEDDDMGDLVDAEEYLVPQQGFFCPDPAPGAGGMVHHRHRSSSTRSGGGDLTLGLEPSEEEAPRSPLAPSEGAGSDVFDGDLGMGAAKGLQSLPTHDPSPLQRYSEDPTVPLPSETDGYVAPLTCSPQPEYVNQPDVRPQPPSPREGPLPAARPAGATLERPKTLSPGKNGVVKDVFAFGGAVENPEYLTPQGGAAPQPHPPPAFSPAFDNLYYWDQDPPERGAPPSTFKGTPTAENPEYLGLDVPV
Protocol: as §4

HepG2 cells [2] = assay: Apoptosis analysis (Annexin V-FITC/PI flow cytometry); format: cell-based, human
Protocol: Annexin V and propidium iodide (PI) reagent were used to detect the cell death in apoptosis by binding to phosphatidyl serine and DNA in plasma membrane, respectively. The cell death was examined by staining HepG2 cells with Annexin V and PI, and cellular fluorescence analysis was then performed using flow cytometry (Table 5). According to the results, compound 5 induced apoptosis by 160-fold in the late stage and by 20-fold in the early stage. […] As shown in the dot plot results, compound 5 caused exerted noticeable cell damage compared to untreated cells (Figure 4). Collectively, the results of cell cycle and apoptosis analysis confirmed the cytotoxicity effects of compound 5.
Effect of compound 5 on cell programmed cell death was analyzed using Annexin V-FITC cell apoptosis detection kit (K101-100) (BioVision Techology, Inc., Exon, PA, USA) by following the method described in [17, 30]. Briefly, in 6-well plates, HepG2 cells at a density of 2 × 10^5 were cultured and incubated for 24 h. The cultured cells were then treated with compound 5 for 24 h. Afterwards, the cells were trypsinized and gathered via centrifugation (5 min, 300× g), washed twice with PBS, and suspended in 0.1 mL of a 1X binding buffer. Then, the cells were double-stained with 5 µL Annexin V-FITC and 5 µL PI in the dark at room temperature for 15 min before they were examined using an Epics XL-MCL™ Flow Cytometer (Beckman Coulter, Apeldoorn, The Netherlands). The excitation wavelength was 488 nm while the emission wavelength was 530 nm. Finally, the data were analyzed using Flowing software (version 2.5.1, Turku Centre for Biotechnology, Turku, Finland).

caspase 3 = assay: Caspase 3 level assay (ELISA) in HepG2; format: cell-based, human; conditions: HepG2 cells, 24 h, vs untreated control
Protocol: as §2, §3

VEGFR2 = VEGFR2 (Homo sapiens, UniProt P35968); assay: Kinase inhibition assay (ELISA kit)
VEGFR2, sequence (P35968 20-1356): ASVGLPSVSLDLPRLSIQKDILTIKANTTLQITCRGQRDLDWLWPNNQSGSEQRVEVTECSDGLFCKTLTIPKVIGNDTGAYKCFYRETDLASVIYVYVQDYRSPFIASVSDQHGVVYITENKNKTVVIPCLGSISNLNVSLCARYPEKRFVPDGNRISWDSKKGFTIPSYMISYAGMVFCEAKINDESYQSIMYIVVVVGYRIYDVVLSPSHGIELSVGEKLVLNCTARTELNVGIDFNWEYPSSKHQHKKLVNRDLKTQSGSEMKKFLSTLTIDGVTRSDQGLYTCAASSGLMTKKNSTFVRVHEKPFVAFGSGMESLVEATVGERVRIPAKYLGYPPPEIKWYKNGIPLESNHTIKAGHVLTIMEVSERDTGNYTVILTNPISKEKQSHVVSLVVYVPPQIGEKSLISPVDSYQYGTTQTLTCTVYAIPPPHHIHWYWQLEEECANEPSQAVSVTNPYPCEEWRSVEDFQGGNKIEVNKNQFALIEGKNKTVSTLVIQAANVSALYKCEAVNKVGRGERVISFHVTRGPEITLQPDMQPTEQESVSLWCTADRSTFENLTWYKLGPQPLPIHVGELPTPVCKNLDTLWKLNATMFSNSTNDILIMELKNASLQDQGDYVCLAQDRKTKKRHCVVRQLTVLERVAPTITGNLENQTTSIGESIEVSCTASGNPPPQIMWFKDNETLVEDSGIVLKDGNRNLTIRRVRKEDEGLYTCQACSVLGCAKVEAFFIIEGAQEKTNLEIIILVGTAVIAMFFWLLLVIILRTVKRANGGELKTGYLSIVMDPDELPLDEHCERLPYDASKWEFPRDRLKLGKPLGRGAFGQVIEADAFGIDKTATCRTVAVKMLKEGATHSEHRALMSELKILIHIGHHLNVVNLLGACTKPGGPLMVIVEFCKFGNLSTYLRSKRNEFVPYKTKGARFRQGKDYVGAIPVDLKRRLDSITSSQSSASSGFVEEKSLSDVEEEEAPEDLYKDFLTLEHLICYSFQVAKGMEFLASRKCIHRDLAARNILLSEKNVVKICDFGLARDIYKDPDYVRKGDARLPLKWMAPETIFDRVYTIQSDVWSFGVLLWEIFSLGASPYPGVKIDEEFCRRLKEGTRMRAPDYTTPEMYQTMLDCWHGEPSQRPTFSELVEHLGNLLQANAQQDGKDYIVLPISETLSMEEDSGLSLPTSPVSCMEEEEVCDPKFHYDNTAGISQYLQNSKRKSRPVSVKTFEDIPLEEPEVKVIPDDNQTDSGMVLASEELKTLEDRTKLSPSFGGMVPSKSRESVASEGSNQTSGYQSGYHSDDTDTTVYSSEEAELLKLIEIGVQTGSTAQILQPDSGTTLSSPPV
Protocol: as §4

HepG2 cells [3] = assay: Cell cycle analysis (propidium iodide flow cytometry); format: cell-based, human; conditions: 6.11 μM, 24 h
Protocol: Cell cycle analysis can determine at which phase in the cell cycle apoptosis occurs. The cell cycle is four phases consisting of G1 (growth), S (DNA synthesis), G2 (growth and preparation for mitosis), and M (mitosis). Normal cell growth and proliferation are controlled by various checkpoints at these phases. Thus, HepG2 cells were treated with 6.11 μM of compound 5 to determine at which phase apoptosis occurs in the cell cycle for 24 h (Figure 3 and Table 4).
Effect of compound 5 on cell cycle distribution was analyzed using following the method described in [17, 29]. Briefly, to determine the influence of compound 5 on the cell cycle progression of HepG2 cells, flow cytometry analysis was performed using Propidium Iodide flow cytometry kit/BD (ab139418). First, the cells were cultured at a density of 2 × 10^5/well and incubated for 24 h. Afterwards, the cells were treated with compound 5 for 24 h. Then, the cells were fixed using 70% ethanol for 12 h at 4 °C. The cells were then washed with cold PBS, incubated with 100 µL RNase A for 30 min at 37 °C, and stained with Propidium Iodide (400 µL) in the dark at room temperature for 30 min. The stained cells were identified by running Epics XLMCL™ flow cytometer equipment (Beckman Coulter, Apeldoorn, The Netherlands), and the results were interpreted using Flowing software (version 2.5.1, Turku Centre for Biotechnology, Turku, Finland).

caspase 9 = assay: Caspase 9 level assay (ELISA) in HepG2; format: cell-based, human; conditions: HepG2 cells, 24 h, vs untreated control
Protocol: as §2, §3

Bcl-2 = Bcl-2 level assay (ELISA) in HepG2; format: cell-based, human; conditions: HepG2 cells, 24 h, vs untreated control
Protocol: as §2, §3

CDK2 = CDK2 (Homo sapiens, UniProt P24941); assay: Kinase inhibition assay (ELISA kit)
Protocol: as §4

Compound: COc1cccc2c1C(=O)c1c(O)c3c(c(O)c1C2=O)C[C@@](O)(C(=O)CO)C[C@@H]3O[C@H]1C[C@H](N)[C@H](O)[C@H](C)O1 [DOXORUBICIN, doxorubicin, reference compound]
IC50 (HepG2): 4.5 ± 0.2 µM

Compound: CCN(CC)CCNC(=O)c1c(C)[nH]c(/C=C2\C(=O)Nc3ccc(F)cc32)c1C [Sunitinib, reference compound]
IC50 (HeLa): 7.48 ± 0.6 µM
IC50 (MDA-MB-231): 8.41 ± 0.7 µM
IC50 (MCF-7): 5.19 ± 0.4 µM
IC50 (HepG2): 6.82 ± 0.5 µM

Compound: O=C1Nc2ccc(F)cc2C1=NNC(=O)c1ccc(Nc2ncnc3[nH]ccc23)cc1 [Compound 3, 4-((7H-pyrrolo[2,3-d]pyrimidin-4-yl)amino)-N′-(5-fluoro-2-oxoindolin-3-ylidene)benzohydrazide]
IC50 (HeLa): 39.1 ± 2.4 µM
IC50 (MDA-MB-231): 42.9 ± 2.6 µM
IC50 (MCF-7): 63.7 ± 3.4 µM
IC50 (HepG2): 59.3 ± 3.3 µM

Compound: O=C1Nc2ccc(Cl)cc2C1=NNC(=O)c1ccc(Nc2ncnc3[nH]ccc23)cc1 [Compound 2, 4-((7H-pyrrolo[2,3-d]pyrimidin-4-yl)amino)-N′-(5-chloro-2-oxoindolin-3-ylidene)benzohydrazide]
IC50 (HeLa): 45.4 ± 2.6 µM
IC50 (MDA-MB-231): 51.3 ± 2.9 µM
IC50 (MCF-7): 72.5 ± 3.7 µM
IC50 (HepG2): 67.4 ± 3.6 µM

Compound: Cc1ccc2c(c1)C(=NNC(=O)c1ccc(Nc3ncnc4[nH]ccc34)cc1)C(=O)N2 [Compound 4, 4-((7H-pyrrolo[2,3-d]pyrimidin-4-yl)amino)-N′-(5-methyl-2-oxoindolin-3-ylidene)benzohydrazide]
IC50 (HeLa): 75.4 ± 3.5 µM
IC50 (MDA-MB-231): 73.2 ± 3.3 µM
IC50 (MCF-7): 80.2 ± 4.2 µM
IC50 (HepG2): 92.7 ± 4.5 µM

Compound: O=C1Nc2ccccc2C1=NNC(=O)c1ccc(Nc2ncnc3[nH]ccc23)cc1 [Compound 1, 4-((7H-pyrrolo[2,3-d]pyrimidin-4-yl)amino)-N′-(2-oxoindolin-3-ylidene)benzohydrazide]
IC50 (HeLa): 12.4 ± 0.9 µM
IC50 (MDA-MB-231): 16 ± 1.3 µM
IC50 (MCF-7): 18.5 ± 1.5 µM
IC50 (HepG2): 25.8 ± 1.9 µM
Antiproliferative activity (in words) [1]: moderate antiproliferative activity

IC50 (EGFR): 0.103 ± 0.006 µM
IC50 (HER2): 0.081 ± 0.002 µM
IC50 (VEGFR2): 0.178 ± 0.009 µM
IC50 (CDK2): 0.131 ± 0.007 µM
Compound: COc1ccc2c(c1)C(=NNC(=O)c1ccc(Nc3ncnc4[nH]ccc34)cc1)C(=O)N2 [Compound 5, 4-((7H-pyrrolo[2,3-d]pyrimidin-4-yl)amino)-N′-(5-methoxy-2-oxoindolin-3-ylidene)benzohydrazide]
IC50 (HeLa): 1.98 ± 0.1 µM
IC50 (MDA-MB-231): 2.48 ± 0.1 µM
IC50 (MCF-7): 5.93 ± 0.3 µM
IC50 (HepG2): 6.11 ± 0.4 µM
Gene Expression Fold Change Bax (BAX): 6.13 fold
Gene Expression Fold Change Bax (BAX; listed as compound 5): 6 fold
Apoptosis Early (HepG2 cells [2]; 24 h, Annexin V-FITC/PI): 13.28%
Apoptosis Late (HepG2 cells [2]; 24 h, Annexin V-FITC/PI): 21.16%
Necrosis (HepG2 cells [2]; 24 h, Annexin V-FITC/PI): 5.28%
Increase in necrotic cell death (HepG2 cells [2]; compared to untreated cells): 4.75 fold
Induction of apoptosis in the early stage (HepG2 cells [2]; compared to untreated cells): 20 fold
Induction of apoptosis in the late stage (HepG2 cells [2]; compared to untreated cells): 160 fold
Gene Expression Fold Change Caspase 3 (caspase 3): 7.984 fold
Gene Expression Fold Change Caspase 3 (caspase 3; listed as compound 5): 8 fold
Cell Cycle Distribution %G0-G1 (HepG2 cells [3]): 49.02%
Cell Cycle Distribution %G2/M (HepG2 cells [3]): 6.05%
Cell Cycle Distribution %Pre-G1 (HepG2 cells [3]): 39.72%
Cell Cycle Distribution %S (HepG2 cells [3]): 44.93%
Cell cycle arrest phase (HepG2 cells [3]): arrested the cell cycle of HepG2 cells at G1 and S phases
Gene Expression Fold Change Caspase 9 (caspase 9): 4.853 fold
Gene Expression Fold Change Caspase 9 (caspase 9; listed as compound 5): 5 fold
Gene Expression Fold Change Bcl-2 (Bcl-2): 0.184 fold
Gene Expression Fold Change Bcl-2 (Bcl-2; listed as compound 5): 0.18 fold
